Measurements: ChEMBL document CHEMBL3102853, “Carbonic anhydrase inhibitors. Synthesis, and molecular structure of novel series N-substituted N'-(2-arylmethylthio-4-chloro-5-methylbenzenesulfonyl)guanidines and their inhibition of human cytosolic isozymes I and II and the transmembrane tumor-associated isozymes IX and XII” (Eur J Med Chem, 2014)
The source made the active and inactive calls. The calls are words filed in the database; no cut-off is given here.

Experiments:
[1] = target: Carbonic anhydrase 9 (Homo sapiens, UniProt Q16790)
[2] = system: HOP-92; experiment: Cytotoxicity against human HOP92 cells; assay type: functional
[3] = system: MDA-MB-468; experiment: Cytotoxicity against human MDA-MB-468 cells; assay type: functional
[4] = system: SK-MEL-2; experiment: Cytotoxicity against human SK-MEL-2 cells; assay type: functional
[5] = system: KM12; experiment: Cytotoxicity against human KM12 cells at 10 uM; assay type: functional; details: read-out: GI
[6] = system: SR; experiment: Cytotoxicity against human SR cells at 10 uM; assay type: functional; details: read-out: GI
[7] = system: SF-539; experiment: Cytotoxicity against human SF539 cells; assay type: functional
[8] = system: SF-268; experiment: Cytotoxicity against human SF268 cells; assay type: functional
[9] = system: SNB-75; experiment: Cytotoxicity against human SNB75 cells; assay type: functional
[10] = system: MDA-MB-231; experiment: Cytotoxicity against human MDA-MB-231 cells; assay type: functional
[11] = system: NCI-H460; experiment: Cytotoxicity against human NCI-H460 cells; assay type: functional
[12] = system: HL-60(TB); experiment: Cytotoxicity against human HL-60(TB) cells; assay type: functional
[13] = Cytotoxicity against human OVCAR4 cells; assay type: functional
[14] = system: OVCAR-3; experiment: Cytotoxicity against human OVCAR3 cells at 10 uM; assay type: functional; details: read-out: GI
[15] = system: SF-268; experiment: Cytotoxicity against human SF268 cells at 10 uM; assay type: functional; details: read-out: GI
[16] = system: OVCAR-3; experiment: Cytotoxicity against human OVCAR3 cells; assay type: functional
[17] = system: SR; experiment: Cytotoxicity against human SR cells; assay type: functional
[18] = system: M14; experiment: Cytotoxicity against human M14 cells; assay type: functional
[19] = system: MCF7; experiment: Cytotoxicity against human MCF7 cells at 10 uM; assay type: functional; details: read-out: GI
[20] = system: HL-60(TB); experiment: Cytotoxicity against human HL-60(TB) cells at 10 uM; assay type: functional; details: read-out: GI
[21] = Cytotoxicity against human Hs 578T cells at 10 uM; assay type: functional; details: read-out: GI
[22] = system: SNB-19; experiment: Cytotoxicity against human SNB19 cells; assay type: functional
[23] = system: NCI/ADR-RES; experiment: Cytotoxicity against human NCI-ADR-RES cells at 10 uM; assay type: functional
[24] = system: LOX IMVI; experiment: Cytotoxicity against human LOXIMVI cells; assay type: functional
[25] = system: SNB-75; experiment: Cytotoxicity against human SNB75 cells at 10 uM; assay type: functional; details: read-out: GI
[26] = system: RPMI-8226; experiment: Cytotoxicity against human RPMI8226 cells; assay type: functional
[27] = system: SK-MEL-2; experiment: Cytotoxicity against human SK-MEL-2 cells at 10 uM; assay type: functional; details: read-out: GI
[28] = Cytotoxicity against human Hs 578T cells; assay type: functional
[29] = system: PC-3; experiment: Cytotoxicity against human PC3 cells; assay type: functional
[30] = system: CCRF-CEM; experiment: Cytotoxicity against human CCRF-CEM cells; assay type: functional
[31] = system: OVCAR-8; experiment: Cytotoxicity against human OVCAR8 cells; assay type: functional
[32] = system: BT-549; experiment: Cytotoxicity against human BT549 cells; assay type: functional
[33] = system: UACC-62; experiment: Cytotoxicity against human UACC62 cells; assay type: functional
[34] = system: K562; experiment: Cytotoxicity against human K562 cells; assay type: functional
[35] = system: HOP-92; experiment: Cytotoxicity against human HOP92 cells at 10 uM; assay type: functional; details: read-out: GI
[36] = system: RPMI-8226; experiment: Cytotoxicity against human RPMI8226 cells at 10 uM; assay type: functional; details: read-out: GI
[37] = system: HT-29; experiment: Cytotoxicity against human HT-29 cells at 10 uM; assay type: functional; details: read-out: GI
[38] = system: SW-620; experiment: Cytotoxicity against human SW620 cells at 10 uM; assay type: functional; details: read-out: GI
[39] = system: UACC-62; experiment: Cytotoxicity against human UACC62 cells at 10 uM; assay type: functional; details: read-out: GI
[40] = system: T47D; experiment: Cytotoxicity against human T47D cells; assay type: functional
[41] = system: SK-MEL-28; experiment: Cytotoxicity against human SK-MEL-28 cells; assay type: functional
[42] = system: A549; experiment: Cytotoxicity against human A549 cells at 10 uM; assay type: functional; details: read-out: GI
[43] = system: A498; experiment: Cytotoxicity against human A498 cells; assay type: functional
[44] = system: MCF7; experiment: Cytotoxicity against human MCF7 cells; assay type: functional
[45] = system: IGROV-1; experiment: Cytotoxicity against human IGROV1 cells; assay type: functional
[46] = system: Malme-3M; experiment: Cytotoxicity against human MALME-3M cells; assay type: functional
[47] = Cytotoxicity against human UACC257 cells; assay type: functional
[48] = system: LOX IMVI; experiment: Cytotoxicity against human LOXIMVI cells at 10 uM; assay type: functional; details: read-out: GI
[49] = system: DU-145; experiment: Cytotoxicity against human DU145 cells at 10 uM; assay type: functional; details: read-out: GI
[50] = system: MOLT-4; experiment: Cytotoxicity against human MOLT4 cells at 10 uM; assay type: functional; details: read-out: GI
[51] = system: PC-3; experiment: Cytotoxicity against human PC3 cells at 10 uM; assay type: functional; details: read-out: GI
[52] = system: HCT-116; experiment: Cytotoxicity against human HCT116 cells; assay type: functional
[53] = system: T47D; experiment: Cytotoxicity against human T47D cells at 10 uM; assay type: functional; details: read-out: GI
[54] = system: MDA-MB-435; experiment: Cytotoxicity against human MDA-MB-435 cells; assay type: functional
[55] = system: COLO 205; experiment: Cytotoxicity against human COLO205 cells; assay type: functional
[56] = system: KM12; experiment: Cytotoxicity against human KM12 cells; assay type: functional
[57] = system: MOLT-4; experiment: Cytotoxicity against human MOLT4 cells; assay type: functional
[58] = system: K562; experiment: Cytotoxicity against human K562 cells at 10 uM; assay type: functional; details: read-out: GI
[59] = system: A498; experiment: Cytotoxicity against human A498 cells at 10 uM; assay type: functional; details: read-out: GI
[60] = system: NCI-H460; experiment: Cytotoxicity against human NCI-H460 cells at 10 uM; assay type: functional; details: read-out: GI
[61] = system: NCI-H522; experiment: Cytotoxicity against human NCI-H522 cells; assay type: functional
[62] = system: MDA-MB-468; experiment: Cytotoxicity against human MDA-MB-468 cells at 10 uM; assay type: functional; details: read-out: GI
[63] = system: HCC 2998; experiment: Cytotoxicity against human HCC2998 cells; assay type: functional
[64] = read-out: LC50 (the source's name)

Cc1cc(S(=O)(=O)NC(=N)NCc2ccc(S(N)(=O)=O)cc2)c(SCc2cccc(C(F)(F)F)c2)cc1Cl
Ki [1]: 0.017 µM

Cc1cc(S(=O)(=O)NC(=N)NCc2ccc(S(N)(=O)=O)cc2)c(SCc2cc(=O)[nH]c3ccccc23)cc1Cl
Ki [1]: 0.31 µM

Cc1cc(S(=O)(=O)NC(=N)Nc2ccc(S(N)(=O)=O)cc2)c(SCc2ccc(C(F)(F)F)cc2)cc1Cl
GI50 [2]: 2.7 µM
TGI [2]: 8.6 µM
CC50 [2, 64]: 33.9 µM
GI50 [3]: 2.7 µM
TGI [3]: 15 µM
CC50 [3, 64]: 81.6 µM
GI50 [4]: 2.4 µM
TGI [4]: 6.3 µM
CC50 [4, 64]: 25.3 µM
inhibition of growth at 10 µM [5]: 50%
inhibition of growth at 10 µM [6]: 72%
GI50 [7]: 4.8 µM
TGI [7]: 18.3 µM
CC50 [7, 64]: 45.1 µM
GI50 [8]: 5.5 µM
TGI [8]: 21.2 µM
CC50 [8, 64]: 64.8 µM
GI50 [9]: 2.7 µM
TGI [9]: 17.4 µM
CC50 [9, 64]: 66.1 µM
GI50 [10]: 2.5 µM
TGI [10]: 11.1 µM
CC50 [10, 64]: 37 µM
GI50 [11]: 4.2 µM
TGI [11]: 18.5 µM
CC50 [11, 64]: 90 µM
GI50 [12]: 2.1 µM
TGI [12]: 5.5 µM
CC50 [12, 64]: 34.5 µM
GI50 ([13]; OVCAR-4): 3.9 µM
TGI ([13]; OVCAR-4): 25.1 µM
CC50 ([13]; OVCAR-4, read-out: LC50 (the source's name)): > 100 µM
inhibition of growth at 10 µM [14]: 50%
inhibition of growth at 10 µM [15]: 31%
GI50 [16]: 3.9 µM
TGI [16]: 14 µM
CC50 [16, 64]: 39 µM
GI50 [17]: 2.1 µM
TGI [17]: 5.9 µM
CC50 [17, 64]: > 100 µM
GI50 [18]: 7.3 µM
TGI [18]: 22 µM
CC50 [18, 64]: 56.3 µM
inhibition of growth at 10 µM [19]: 69%
inhibition of growth at 10 µM [20]: 66%
inhibition of growth at 10 µM [21]: 20%
GI50 [22]: 5 µM
TGI [22]: 21.5 µM
CC50 [22, 64]: 61.1 µM
growth inhibition (GI) [23]: inactive
GI50 [24]: 4.9 µM
TGI [24]: 17.7 µM
CC50 [24, 64]: 48.4 µM
inhibition of growth at 10 µM [25]: 71%
GI50 [26]: 3.1 µM
TGI [26]: 11 µM
CC50 [26, 64]: > 100 µM
inhibition of growth at 10 µM [27]: 43%
GI50 [28]: 3.7 µM
TGI [28]: 24.6 µM
CC50 [28, 64]: > 100 µM
GI50 [29]: 3.7 µM
TGI [29]: 13.7 µM
CC50 [29, 64]: 40.9 µM
GI50 [30]: 3.8 µM
TGI [30]: 15.2 µM
CC50 [30, 64]: 86.2 µM
GI50 [31]: 4.6 µM
TGI [31]: 22.9 µM
CC50 [31, 64]: 87.6 µM
GI50 [32]: 4.6 µM
TGI [32]: 18.5 µM
CC50 [32, 64]: 58 µM
GI50 [33]: 2.6 µM
TGI [33]: 10.4 µM
CC50 [33, 64]: 33 µM
GI50 [34]: 3.6 µM
TGI [34]: 21.1 µM
CC50 [34, 64]: > 100 µM
inhibition of growth at 10 µM [35]: 58%
inhibition of growth at 10 µM [36]: 57%
inhibition of growth at 10 µM [37]: 22%
inhibition of growth at 10 µM [38]: 12%
inhibition of growth at 10 µM [39]: 49%
GI50 [40]: 5.1 µM
TGI [40]: 22.8 µM
CC50 [40, 64]: 95.8 µM
GI50 [41]: 4.2 µM
TGI [41]: 15.6 µM
CC50 [41, 64]: 46.6 µM
inhibition of growth at 10 µM [42]: 32%
GI50 [43]: 4.6 µM
TGI [43]: 21.1 µM
CC50 [43, 64]: 53.7 µM
GI50 [44]: 2.9 µM
TGI [44]: 14.1 µM
CC50 [44, 64]: 69.7 µM
GI50 [45]: 5.8 µM
TGI [45]: 23.3 µM
CC50 [45, 64]: 93 µM
GI50 [46]: 6.7 µM
TGI [46]: 21 µM
CC50 [46, 64]: 52.5 µM
GI50 ([47]; UACC-257): 3.6 µM
TGI ([47]; UACC-257): 15.2 µM
CC50 ([47]; UACC-257, read-out: LC50 (the source's name)): 41.1 µM
inhibition of growth at 10 µM [48]: 29%
inhibition of growth at 10 µM [49]: 9%
inhibition of growth at 10 µM [50]: 60%
inhibition of growth at 10 µM [51]: 74%
GI50 [52]: 4 µM
TGI [52]: 15.4 µM
CC50 [52, 64]: 45.9 µM
inhibition of growth at 10 µM [53]: 58%
GI50 [54]: 3.8 µM
TGI [54]: 14.8 µM
CC50 [54, 64]: 46.1 µM
GI50 [55]: 4.4 µM
TGI [55]: 17.7 µM
CC50 [55, 64]: 80.6 µM
GI50 [56]: 3.1 µM
TGI [56]: 10.9 µM
CC50 [56, 64]: 40.2 µM
GI50 [57]: 2.8 µM
TGI [57]: 11.2 µM
CC50 [57, 64]: > 100 µM
inhibition of growth at 10 µM [58]: 64%
inhibition of growth at 10 µM [59]: 15%
inhibition of growth at 10 µM [60]: 21%
GI50 [61]: 3.9 µM
TGI [61]: 16.3 µM
CC50 [61, 64]: 48.5 µM
inhibition of growth at 10 µM [62]: 63%
GI50 [63]: 3.9 µM
TGI [63]: 13.8 µM
CC50 [63, 64]: 46.2 µM
